Assay results from US7842695B2, “Substituted pyrazole compounds” (Merck Patent GmbH, priority 2003, dated 2010).

target: 5-HT2A receptors (UniProt P14842); experiment: in-vitro affinity to 5-HT2A receptors, [3H]ketanserine displacement (Example A1); format: binding
Description: The 5-HT2A receptors are exposed both to [^3H]ketanserine (a substance known for its affinity to the receptor) and also to the test compound. The decrease in the affinity of [^3H]ketanserine to the receptor is an indication of the affinity of the test substance to the 5-HT2A receptor.

Structure (SMILES)	IC50
Fc1ccc(-c2ccc(-n3ncc(CNC4CN5CCC4CC5)c3-c3ccco3)cc2)cc1 (stereo not shown) [Example 621]	34 nM
CCN(CC)Cc1cnn(-c2ccc(-c3ccc(F)cc3)cc2)c1-c1cccc(Cl)c1 [Example 682, [5-(3-Chlorophenyl)-1-(4′-fluorobiphenyl-4-yl)-1H-pyrazol-4-ylmethyl]diethylamine]	190 nM
COc1ccc(-c2ccc(-n3ncc(CNCc4ccccn4)c3-c3ccco3)cc2)cc1 [Example 641, [5-Furan-2-yl-1-(4′-methoxybiphenyl-4-yl)-1H-pyrazol-4-ylmethyl]pyridin-2-ylmethylamine]	46 nM
O=C1CN(Cc2cnn(-c3ccc(-c4ccc5c(c4)OCO5)cc3)c2-c2ccco2)CCN1 [Example 693, 4-[1-(4-Benzo-1,3-dioxol-5-ylphenyl)-5-furan-2-yl-1H-pyrazol-4-ylmethyl]piperazin-2-one]	280 nM
CCCN1CCN(Cc2cnn(-c3ccc(-c4ccc(F)cc4)cc3)c2-c2ccoc2)CC1 [Example 657, 1-[1-(4′-Fluorobiphenyl-4-yl)-5-furan-3-yl-1H-pyrazol-4-ylmethyl]-4-propylpiperazine]	73 nM
CC1CCCN1Cc1cnn(-c2ccc(-c3ccc4c(c3)OCCO4)cc2)c1-c1ccco1 (stereo not shown) [Example 594, 1-[4-(2,3-Dihydrobenzo-1,4-dioxin-6-yl)phenyl]-5-furan-2-yl-4-(2-methylpyrrolidin-1-ylmethyl)-1H-pyrazole]	21 nM
Cc1ccoc1-c1c(CN2CCN(C(=O)OC(C)(C)C)CC2)cnn1-c1ccc(-c2ccc(F)cc2)cc1 [Example 689, tert-Butyl 4-[1-(4′-fluorobiphenyl-4-yl)-5-(3-methyl-2-furanyl)-1H-pyrazol-4-ylmethyl]piperazine-1-carboxylate]	220 nM
Fc1ccc(-c2ccc(-n3ncc(CN4CCN(CCN5CCCC5)CC4)c3-c3cccc(Cl)c3)cc2)cc1 [Example 703, 1-[5-(3-Chlorophenyl)-1-(4′-fluorobiphenyl-4-yl)-1H-pyrazol-4-ylmethyl]-4-(2-pyrrolidin-1-ylethyl)piperazine]	480 nM
CC(C)(C)OC(=O)NC1CCN(Cc2cnn(-c3ccc(-c4ccc5c(c4)OCO5)cc3)c2-c2ccco2)CC1 [Example 611, tert-Butyl {1-[1-(4-benzo-1,3-dioxol-5-ylphenyl)-5-furan-2-yl-1H-pyrazol-4-ylmethyl]piperidin-4-yl}carbamate]	31 nM
COc1cccc(-c2c(CN3CCN(C)CC3)cnn2-c2ccc(-c3ccc(F)cc3)cc2)c1 [Example 627, 1-[1-(4′-Fluorobiphenyl-4-yl)-5-(3-methoxyphenyl)-1H-pyrazol-4-ylmethyl]-4-methylpiperazine]	36 nM
CCN1CCN(Cc2cnn(-c3ccc(-c4ccc(F)cc4)cc3)c2-c2c(C)noc2C)CC1 [Example 672, 1-[5-(3,5-Dimethylisoxazol-4-yl)-1-(4′-fluorobiphenyl-4-yl)-1H-pyrazol-4-ylmethyl]-4-ethylpiperazine]	100 nM
Cc1noc(C)c1-c1c(CN2CCNCC2)cnn1-c1ccc(-c2ccc(F)cc2)cc1 [Example 691, 1-[5-(3,5-Dimethylisoxazol-4-yl)-1-(4′-fluorobiphenyl-4-yl)-1H-pyrazol-4-ylmethyl]piperazine]	250 nM
CC(C)(C)OC(=O)NC1CCN(Cc2cnn(-c3ccc(-c4cccc(F)c4)cc3)c2-c2ccco2)CC1 [Example 608, tert-Butyl {1-[1-(3′-fluorobiphenyl-4-yl)-5-furan-2-yl-1H-pyrazol-4-ylmethyl]piperidin-4-yl}carbamate]	29 nM
COc1ccc(-c2ccc(-n3ncc(CNCc4ccncc4)c3-c3ccco3)cc2)cc1 [Example 615, [5-Furan-2-yl-1-(4′-methoxybiphenyl-4-yl)-1H-pyrazol-4-ylmethyl]pyridin-4-ylmethylamine]	32 nM
Cc1noc(C)c1-c1c(CN2CCN(C)CC2)cnn1-c1ccc(-c2ccc(F)cc2)cc1 [Example 696, 1-[5-(3,5-Dimethylisoxazol-4-yl)-1-(4′-fluorobiphenyl-4-yl)-1H-pyrazol-4-ylmethyl]-4-methylpiperazine]	320 nM

Further lines, results first:

IC50	Structure (SMILES)
25 nM	CN1CCN(Cc2cnn(-c3ccc(-c4ccccc4F)cc3)c2-c2ccco2)CC1 [Example 599, 1-[1-(2′-Fluorobiphenyl-4-yl)-5-furan-2-yl-1H-pyrazol-4-ylmethyl]-4-methylpiperazine]
34 nM	CC1CCCN1Cc1cnn(-c2ccc(-c3cccc(F)c3)cc2)c1-c1ccco1 (stereo not shown) [Example 620, 1-(3′-Fluorobiphenyl-4-yl)-5-furan-2-yl-4-(2-methylpyrrolidin-1-ylmethyl)-1H-pyrazole]
50 nM	OC1CCCN(Cc2cnn(-c3ccc(-c4ccc(F)cc4)cc3)c2-c2ccco2)C1 (stereo not shown) [Example 646, 1-[1-(4′-Fluorobiphenyl-4-yl)-5-furan-2-yl-1H-pyrazol-4-ylmethyl]piperidin-3-ol]
17 nM	Fc1ccc(-c2ccc(-n3ncc(CNC4CC4)c3-c3ccco3)cc2)cc1 [Example 582]
16 nM	CN1CCN(c2cnn(-c3ccc(-c4cccc(F)c4)cc3)c2-c2ccccc2)CC1 [Example 578, 1-[1-(3′-Fluorobiphenyl-4-yl)-5-phenyl-1H-pyrazol-4-yl]-4-methylpiperazine]
170 nM	Fc1ccccc1-c1c(CN2CCN(Cc3ccccc3)CC2)cnn1-c1ccc(-c2ccccc2)cc1 [Example 679, 1-Benzyl-4-[1-biphenyl-4-yl-5-(2-fluorophenyl)-1H-pyrazol-4-ylmethyl]piperazine]
85 nM	CN1CCN(Cc2cnn(-c3ccc(-c4ccc(S(C)(=O)=O)cc4)cc3)c2-c2ccccc2F)CC1 [Example 663, 1-[5-(2-Fluorophenyl)-1-(4′-methanesulfonylbiphenyl-4-yl)-1H-pyrazol-4-ylmethyl]-4-methylpiperazine]
20 nM	O=C(c1ccccc1)C1CCCN(Cc2cnn(-c3ccc(-c4ccc(F)cc4)cc3)c2-c2ccco2)C1 (stereo not shown) [Example 593, 1-{1-[1-(4′-Fluorobiphenyl-4-yl)-5-furan-2-yl-1H-pyrazol-4-ylmethyl]piperidin-3-yl}-1-phenylmethanone]
92 nM	OCCOCCNCc1cnn(-c2ccc(-c3ccc(F)cc3)cc2)c1-c1ccco1 [Example 666, 2-(2-{[1-(4′-Fluorobiphenyl-4-yl)-5-furan-2-yl-1H-pyrazol-4-ylmethyl]amino}ethoxy)ethanol]
160 nM	O=C(O)Cc1cnn(-c2ccccc2F)c1-c1cccs1 [Example 678, 1-(2-Fluorophenyl)-5-(2-thienyl)-4-pyrazoleacetic acid]
42 nM	CC(C)(C)OC(=O)N1CCN(Cc2cnn(-c3ccc(-c4cccc(F)c4)cc3)c2-c2ccco2)CC1 [Example 638, tert-Butyl 4-[1-(3′-Fluorobiphenyl-4-yl)-5-furan-2-yl-1H-pyrazol-4-ylmethyl]piperazine-1-carboxylate]
18 nM	COc1ccc(-c2ccc(-n3ncc(CN)c3-c3ccco3)cc2)cc1 [Example 584, C-[5-Furan-2-yl-1-(4′-methoxybiphenyl-4-yl)-1H-pyrazol-4-yl]methylamine]
16 nM	Cc1noc(C)c1-c1c(CN(C)C)cnn1-c1ccc(-c2ccc(F)cc2)cc1 [Example 577, [5-(3,5-Dimethylisoxazol-4-yl)-1-(4′-fluorobiphenyl-4-yl)-1H-pyrazol-4-ylmethyl]dimethylamine]
